The values that follow come from patent US5521193A, “Benzimidazole compounds” (G. D. Searle & Co., priority 1995, dated 1996).

The test system of one assay is 5-HT3. Kind of assay: Bezold-Jarisch Reflex (inhibition of 5-HT-induced bradycardia in anesthetized mice). The class given is in vivo. To be noted: i.p., 30 min before 5-HT 0.25 mg/kg i.v.; >50 percent reduction in bradycardic response vs vehicle considered significant; pentobarbital anesthetized mice. On the procedure: (§1) 5-HT4 agonist activity was determined in the in vitro rat tunice muscularis mucosae (TMM) assay. (Baxter et el., Naunyn Schmied Arch. Pharmacol, 1991, 343,439). The 5-HT4 agonist or antagonist activity and/or 5-HT3 antagonist activity of the compounds of the invention herein, can be determined by the assays as described herein, without undue experimention.
The compound to be evaluated was administered i.p. (mg/kg) to a group of 3 mice. […] A greater than 50 percent (>50) reduction in the bradycardic response relative to vehicle-treated control mice was considered significant.
This method has been described by Saxena, P. R. and Lawang, A., Arch. Int. Pharmacodyn., 277:235-252, 1985.
The assay results for the compounds of the present invention and their Minimum Effective Dose (MED) and the reference compounds and their MEDs are recorded in Table I.

In a further assay the target is T1, 5-HT3 receptor (Rattus norvegicus, UniProt P35563).
T1 construct: Brain cortices were obtained from male rats and a membrane fraction prepared by standard techniques; from tissue; host or cells: rat brain cortex membranes
T1 sequence (P35563 24-483): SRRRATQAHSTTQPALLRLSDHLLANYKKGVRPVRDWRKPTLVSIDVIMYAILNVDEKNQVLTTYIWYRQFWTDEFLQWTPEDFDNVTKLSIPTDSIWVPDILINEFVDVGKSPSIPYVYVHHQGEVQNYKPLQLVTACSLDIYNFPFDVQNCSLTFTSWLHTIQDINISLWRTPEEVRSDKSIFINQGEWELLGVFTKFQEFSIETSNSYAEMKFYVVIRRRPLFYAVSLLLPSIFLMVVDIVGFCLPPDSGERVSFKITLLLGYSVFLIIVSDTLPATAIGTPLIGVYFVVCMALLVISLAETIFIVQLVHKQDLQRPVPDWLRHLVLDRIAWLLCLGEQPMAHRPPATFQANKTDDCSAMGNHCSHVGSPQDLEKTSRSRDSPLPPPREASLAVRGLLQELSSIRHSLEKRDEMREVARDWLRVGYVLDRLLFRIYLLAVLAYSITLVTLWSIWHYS
Kind of assay: Serotonin (5-HT3) radioligand binding, [3H]-GR65630, rat brain cortex membranes. To be noted: for Ki: [3H]-GR65630 0.2 nM, 60 min, 22° C. The protocol:
GR65630 binds to the 5-HT3 receptor. Brain cortices were obtained from male rats and a membrane fraction prepared by standard techniques. 0.04 mg of membrane prep was incubated with 0.2 nM […] for 60 minutes at 22° C. […] Membranes were filtered and washed times and the filters were counted to determine [3H]-GR65630 specifically bound. Kilpatrick G. J., Jones B. J. and Tyers M. B. Identification and distribution of 5-HT3 receptors in rat brain using radioligand binding assay. Nature, 330 : 746-748, 1987.

The next assay addresses T2, 5-HT4 receptor (Rattus norvegicus, UniProt Q62758).
T2 construct: One 2 cm segment of intrathoracic esophagus proximal to the diaphragm was removed from male rats; from tissue; host or cells: rat intrathoracic oesophagus, inner tunica muscularis mucosae
Kind of assay: biochemical. To be noted: carbachol (3 μM)-contracted rat esophagus TMM; 37° C.; tissues from 5 rats; read-out: 5-HT4 Agonism (Rat TMM) In Vitro Assay: EC50 Values. The protocol: as §1
Agonist activity was determined utilizing relaxation of carbachol-contracted rat tunica muscularis mucosae. One 2 cm segment of intrathoracic esophagus proximal to the diaphragm was removed from male rats, weighing approximately 300 gm, and the outer muscle layers removed. The inner tunica muscularis mucosa was mounted under 0.2-0.3 g of tension in a tissue bath containing oxygenated Tyrode's solution at 37° C. […] Following a 30 min equilibrium period, tissues were isometrically contracted with carbachol (3 μM) to obtain a tonic contraction. A stable plateau was obtained within 20 min when test compound was added cumulatively to relax the muscle strip. EC50 values were obtained for each agonist in tissues from 5 rats.

T2 sequence (Q62758 whole entry): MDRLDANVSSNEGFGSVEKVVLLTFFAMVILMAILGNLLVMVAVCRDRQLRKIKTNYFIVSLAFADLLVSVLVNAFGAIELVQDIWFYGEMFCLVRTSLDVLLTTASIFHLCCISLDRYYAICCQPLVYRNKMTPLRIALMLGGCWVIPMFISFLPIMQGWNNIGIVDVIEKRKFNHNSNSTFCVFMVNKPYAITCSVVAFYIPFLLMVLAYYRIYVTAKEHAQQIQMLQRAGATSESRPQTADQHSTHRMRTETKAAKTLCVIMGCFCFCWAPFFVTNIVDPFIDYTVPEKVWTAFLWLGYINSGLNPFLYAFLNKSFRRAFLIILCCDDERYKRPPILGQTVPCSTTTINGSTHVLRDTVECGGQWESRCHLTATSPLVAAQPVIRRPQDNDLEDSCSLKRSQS

As to `CC(C)n1c(=O)n(C(=O)NC[C@H]2CCN3CCC[C@H]23)c2ccccc21` (relative stereo) [Example 23, cis-N-[(hexahydro-1H-pyrrolizin-1-yl)methyl]-2,3-dihydro-3-(1-methylethyl) 2-oxo-1H-benzimidazole-1-carboxamide], in the assay with 5-HT3, the “Minimum Effective Dose (MED)” value worked out at 1 mg/kg. Compound `CC(C)n1c(=O)n(C(=O)N[C@@H]2[C@@H]3C[C@H]4CN(C3)C[C@H]42)c2ccccc21` (relative stereo) [Example 24, N-(hexahydro-1H-2,5β-methano-3aα,6aα-cyclopenta [c]pyrrol-4α-yl)-2,3-dihydro-3-(1-methylethyl)-2-oxo 1H-benzimidazole-1-carboxamide] gave a Ki on 5-HT3 receptor of 0.002 µM. Also, the EC50 on 5-HT4 receptor turned out to be 1.51 µM.

As for `CC(C)n1c(=O)n(C(=O)NC[C@@H]2CN3CC[C@H]2C3)c2ccccc21` (relative stereo) [Example 35, N-[(endo-1-azabicyclo[2.2.1]heptan-3-yl)methyl-]-2,3-dihydro-3-(1-methylethyl) -2-oxo-1H-benzimidazole-1-carboxamide], the EC50 at 5-HT4 receptor came to 0.294 µM. Still for that read-out and setting: with `CC(C)n1c(=O)n(C(=O)NC[C@H]2CN3CC[C@H]2C3)c2ccccc21` (relative stereo) [Example 36, N-[(exo-1-azabicyclo[2.2.1]heptan-3-yl)methyl-]-2,3-dihydro-3-(1-methylethyl) 2-oxo-1H-benzimidazole-1-carboxamide] the figure was 0.302 µM.

Turning to `CN1C2CCCC1CC(NC(=O)c1nn(C)c3ccccc13)C2` (centres unmarked) [BRL-43694], in the assay on 5-HT3, the “Minimum Effective Dose (MED)” value turned out to be 0.05 mg/kg. In turn, `CC(C)n1c(=O)n(C(=O)NCCC23CCCN2CCC3)c2ccc(Cl)cc21` [Example 12, 5-chloro-N-[2-(hexahydro-7aH-pyrrolizin-7a-yl)ethyl]2,3-dihydro-3-(1-methylethyl)-2-oxo-1H-benzimidazole 1-carboxamide] returned a Ki on 5-HT3 receptor of 2.8 µM. The EC50 at 5-HT4 receptor turned out to be 9.47 µM.

For the compound `CC(C)n1c(=O)n(C(=O)NCCC23CCCN2CCC3)c2cc(Cl)ccc21` [Example 12A, 6-Chloro-N-[2-(hexahydro-7aH-pyrrolizin-7a-yl)ethyl]2,3-dihydro-3-(1-methylethyl)-2-oxo-1H-benzimidazole 1-carboxamide], the EC50 on 5-HT4 receptor came to 1.36 µM. In the case of `CC(C)n1c(=O)n(C(=O)NCCC23CCCN2CCC3)c2cc(Cl)c(N)cc21` [Example 12B, 6-Chloro-5-amino-N-[2-(hexahydro-7aH-pyrrolizin-7a-yl)ethyl]-2,3-dihydro-3-(1-methylethyl)-2-oxo-1H-benzimidazole-1-carboxamide], the EC50 at 5-HT4 receptor amounted to 0.374 µM. Compound `CC(C)n1c(=O)n(C(=O)NCC23CCCN2CCC3)c2ccccc21` [Example 14, N-[(hexahydro-7aH-pyrrolizin-7a-yl)methyl]-2,3-dihydro-3-(1-methylethyl) 2-oxo-1H-benzimidazole-1-carboxamide] gave an inhibitory constant (Ki) at 5-HT3 receptor of 0.036 µM. For the same compound, the EC50 on 5-HT4 receptor is 3.83 µM. `CC(C)n1c(=O)n(C(=O)N[C@H]2C[C@@H]3CN(C)C[C@@H]3C2)c2ccccc21` [Example 14A]: the EC50 on 5-HT4 receptor was 0.874 µM.

At 5-HT3 receptor, `CCn1c(=O)n(C(=O)NC2C3CC4CC2CN(C4)C3)c2ccccc21` (centres unmarked) [Example 15, N-(1-azatricyclo[3.3.1.1^3,7]decan-4-yl)-3-ethyl-2,3-dihydro-2-oxo 1H-benzimidazole-1-carboxamide] registered a Ki of 0.092 µM. For the same compound, the EC50 at 5-HT4 receptor is 4.58 µM. `CC(C)n1c(=O)n(C(=O)NC2C3CC4CC2CN(C4)C3)c2cc(Cl)ccc21` (centres unmarked) [Example 16, N-(1-azatricyclo[3.3.1.1^3,7]decan-4-yl)-6-chloro-2,3-dihydro-3-(1-methylethyl) 2-oxo-1H-benzimidazole-1-carboxamide] had a Ki at 5-HT3 receptor of 1.2 µM. Further, the EC50 on 5-HT4 receptor amounted to 10 µM. In turn, `CCn1c(=O)n(C(=O)NC2C3CC4CC2CN(C4)C3)c2cc(Cl)ccc21` (centres unmarked) [Example 18, N-(1-azatricyclo[3.3.1.1^3,7]decan-4-yl)-6-chloro-3-ethyl-2,3-dihydro 2-oxo-1H-benzimidazole-1-carboxamide] gave a Ki at 5-HT3 receptor of 1.2 µM. The same measure, in the same setting: with `CCn1c(=O)n(C(=O)NC2C3CC4CC2CN(C4)C3)c2ccc(Cl)cc21` (centres unmarked) [Example 19, N-(1-azatricyclo[3.3.1.1^3,7]decan-4-yl)-5-chloro-3-ethyl-2,3-dihydro 2-oxo-1H-benzimidazole-1-carboxamide] the figure was 1.2 µM. With `CC(C)n1c(=O)n(C(=O)NCC2C3CC4CC2CN(C4)C3)c2ccccc21` (centres unmarked) [Example 19B, N-(1-azatricyclo[3.3.1.1.^3,7]decan-4-ylmethyl)-2,3-dihydro-3-(1-methylethyl) 2-oxo-1H-benzimidazole-1-carboxamide], at 5-HT4 receptor, the EC50 was found to be 0.926 µM. On 5-HT3 receptor, `CCn1c(=O)n(C(=O)NC2C3CC4CC2CN(C4)C3)c2ccccc21` (centres unmarked) [Example 20, N-(1-azatricyclo[3.3.1.1^3,7]decan-4-yl)-3-ethyl-2,3-dihydro-2-oxo-1H-benzimidazole 1-carboxamide] yielded a Ki of 0.019 µM. At 5-HT4 receptor, the EC50 came out at 10 µM. The like results for `CCn1c(=O)n(C(=O)NC2C3CC4CC2CN(C4)C3)c2cc(Cl)ccc21` (centres unmarked) [Example 21, N-(1-azatricyclo[3.3.1.1^3,7]decan-4-yl)-6-chloro-3-ethyl-2,3-dihydro 2-oxo-1H-benzimidazole-1-carboxamide] were, in that order, 0.055 µM and 2.14 µM. The compound `CCn1c(=O)n(C(=O)NC2C3CC4CC2CN(C4)C3)c2ccc(Cl)cc21` (centres unmarked) [Example 22, N-(1-azatricyclo[3.3.1.1^3,7]decan-4-yl)-5-chloro-3-ethyl-2,3-dihydro 2-oxo-1H-benzimidazole-1-carboxamide] came in with a Ki on 5-HT3 receptor of 0.36 µM.

Take `CC(C)n1c(=O)n(C(=O)NCC2C3CC4CC2CN(C4)C3)c2cc(Cl)ccc21` (centres unmarked) [Example 22C, N-(1-azatricyclo[3.3.1.1^3,7]decan-4-ylmethyl)-6-chloro-2,3-dihydro-3-(1-methylethyl) 2-oxo-1H-benzimidazole-1-carboxamide]: at 5-HT4 receptor, the EC50 is 0.722 µM. On the same count and under the same terms, the same measure for `CC(C)n1c(=O)n(C(=O)NCC2C3CC4CC2N(C4)C3)c2ccccc21` (stereo not drawn) [Example 29, N-[(Hexahydro-2β,6β-methano-1H, 7aα-pyrrolizin-1β-yl)methyl]2,3-dihydro-3-(1-methylethyl)-2-oxo-1H-benzimidazole-1-carboxamide]: 1.63 µM. Same read-out and setting: with `CC(C)n1c(=O)n(C(=O)NCC2C3CC4CC2N(C4)C3)c2ccccc21` (stereo not drawn) [Example 30, N-[(Hexahydro-2β,6β-methano-1H, 7aα-pyrrolizin-1α-yl)methyl]2,3-dihydro-3-(1-methylethyl)-2-oxo-1H-benzimidazole-1-carboxamide] the figure was 0.219 µM; with `CC(C)n1c(=O)n(C(=O)NCC2C3CC4CC2CN4C3)c2ccccc21` (centres unmarked) [Example 32, N-(Hexahydro-2,6-methano-1H-pyrrolizin-8-ylmethyl]-2,3-dihydro-3(1-methylethyl)-2-oxo-1H-benzimidazole-1-carboxamide], 1.32 µM. Same read-out and setting: the same measure for `CC(C)n1c(=O)n(C(=O)NCC23CC4CN(CC4C2)C3)c2ccccc21` [Example 33, N-[(Hexahydro-2,5β-methano-1H-3aα,6aα-cyclopenta-[c]pyrrol-5-yl)methyl]-2,3-dihydro 3-(1-methylethyl)-2-oxo-1H-benzimidazole-1-carboxamide]: 0.337 µM; for `CC(C)n1c(=O)n(C(=O)NCC23CC4CN(CC4C2)C3)c2cc(Cl)ccc21` [Example 34, N-[(Hexahydro-2,5β-methano-1H-3aα,6aα-cyclopenta[c]-pyrrol-5-yl)methyl]-6-chloro-2,3-dihydro-3-(1-methylethyl)-2-oxo-1-benzimidazole-1-carboxamide]: 0.248 µM. On 5-HT3 receptor ([3H]-GR65630, rat brain cortex membranes), `Cc1nc[nH]c1CCC(=O)c1cn(C)c2ccccc12` [GR65630, reference compound] registered a Bmax of 154 fmol/mg protein.

One may read the Ki as a measure of affinity in units of concentration, obtained from inhibition or displacement. Low readings indicate tighter binding, high ones weaker binding. For orientation: EC50 means the concentration needed to bring the measured effect to its halfway point.
